Values after ≈ are worked out from the molar mass of the structure shown. Like-named read-outs stand apart in the source and are kept apart here. Blank lines part the entries; values can stand above or below the compound they belong to.
Columns and labels:
[1] = system: mitogen or antigen stimulated murine or human lymphocytes; assay: PBMC proliferation assay (tritiated thymidine incorporation); format: cell-based; conditions: Homo sapiens, Lymphocyte
Method: (§1) Immunomodulatory 3-aminosteroids (FIGS. 3–7 and Table I) were identified in vitro based on their ability to inhibit homo- or hetero-typic aggregation and subsequent proliferation of mitogen or antigen stimulated murine or human lymphocytes. Human or mouse lymphocytes were isolated from peripheral blood by Ficoll-Hypaque as described (Stoeckert et al., (1990) Exp. Hematol. 18. 1164–1170). For mitogen stimulation, 1×10^5 cells per well were plated in varying amounts of 3-aminosteroid compounds and assayed for aggregation and proliferation after twelve hours of stimulation by PHA-PMA mitogens. […] For antigen stimulation, lymphocytes were isolated from BALBc mice which had been sensitized to Aspergillus fumigatus antigen for three weeks and plated at 1×10^5 cells per well with or without 100 units of Aspergillus fulmigatus antigen. Cells were grown for three days and then scored for cellular aggregates and proliferation as described above in the presence or absence of increasing amounts of Compound-B or analogue compounds. […] Similar results were obtained in assays using antigen mediated response to compounds (not shown). […] All of the active compounds shown in Table I as well as rational modifications of these compounds as depicted in FIGS. 8–10 are embodiments of the invention

D2 naive mice = assay: Bronchial hyperresponsiveness in D2 naive mice (APTI); format: in vivo, mouse; conditions: FIG. 14
Method: (§2) DBA2, C57BL6 or B6D2F1 mice, five to six weeks of age, were obtained from the National Cancer Institute or Jackson Laboratories. Animals were housed in high-efficiency particulate filtered air laminar flow hoods in a virus and antigen free facility and allowed free access to pelleted rodent chow and water for three to seven days prior to experimental manipulation. The animal facilities were maintained at 22° C. and the light:dark cycle is automatically controlled (10:14 hour cycle).
(§3) Phenotyping and efficacy of pretreatment. Animals either received no pretreatment or were sensitized by nasal aspiration of Aspergillus fumigatus antigen to assess the effect on bronchial hyperresponsiveness, bronchoalveolar lavage and serum IgE. Mice were challenged with Aspergillus or saline intranasally (Monday, Wednesday and Friday for three weeks) and phenotyped twenty-four hours after the last dose. The effect of pretreatment by aminosteroids was used to assess the effect of down-regulating the IL-9 pathway in mice. To determine the bronchoconstrictor response, respiratory system pressure was measured at the trachea and recorded before and during exposure to the drug. Mice were anesthetized and instrumented as previously described. (Kleeberger et al., (1990) Am. J. Physiol. 258, L313–320; Levitt et al., (1995) Clin. Exp. Allergy 25, 61–63; Ewart et al., (1995) J. Appl. Physiol. 79, 560–566). Airway responsiveness was measured to one or more of the following: 5-hydroxytryptamine, acetylcholine, atracurium or a substance-P analogue. A simple and repeatable measure of the change in peak inspiratory pressure following bronchoconstrictor challenge was used which has been termed the Airway Pressure Time Index (APTI). The APTI was assessed by the change in peak respiratory pressure integrated from the time of injection until the peak pressure returns to baseline or plateau.
(§4) Active compounds identified in vitro were tested in vivo for their ability to suppress airway hyperresponsiveness, lung eosinophilia and serum Ig levels using assays described above. […]

[2] = system: mitogen or antigen stimulated murine or human lymphocytes; assay: Lymphocyte aggregation assay (PHA-PMA mitogen stimulated); format: cell-based; conditions: Homo sapiens, Lymphocyte, 12 h, aggregates of greater than 100 cells, PHA-PMA stimulation; read-out: Aggregation Assay Minimum Effective Conc.
Method: as §1

IL-9 = IL-9 expression in mitogen-stimulated lymphocytes (RT-PCR); format: cell-based, human; conditions: FIG. 13
Method: Total cellular RNA was extracted after 24 hours from cultured PBMC, murine spleen cells and M07e cells using RNA PCR corekit (Perkin-Elmer, Foster City Calif.) according to manufacturer's instructions. One microgram of RNA from each source was denatured for five minutes at 65° C. and then reverse transcribed into cDNA using a 20 μl reaction mixture containing 50 units of MLV Reverse Transcriptase, one unit per μl RNAse inhibitor. […] oligo d(T)16 primer, 1 mM each dATP, dCTP, dGTP, dTTP, 50 mM KCl, 10 mM Tris-HCl, pH 7.0, 25 mM MgCl2. The reaction mixture was pipetted into thermocycler tubes, placed in a PCR thermal cycler and subjected to one cycle (fifteen minutes at 42° C., five minutes at 99° C. and five minutes at 4° C.). A mock reverse transcription reaction was used as a negative control. […]
Immunomodulatory 3-aminosteroids (FIGS. 3–7 and Table I) were identified in vitro based on their ability to inhibit homo- or hetero-typic aggregation and subsequent proliferation of mitogen or antigen stimulated murine or human lymphocytes. […] Cells were grown for three days and then scored for cellular aggregates and proliferation as described above in the presence or absence of increasing amounts of Compound-B or analogue compounds. […]

[3] = rat, in vivo, 1 mg/kg/day
Method: To determine the mechanism by which 3-aminosteroid compounds function to suppress the asthmatic response to allergen, comparative physiologic assays were carried out utilizing the extensively studied Sprague-Dawley rat model (Scaccianoce et al., (1995) Neuroendocrinology 62, 32–38; Hatzinger et al., (1996) Neuroendocrinology 64, 349–356). Animals were administered 1 mg/kg/day of either the corticosteroid Dexamethasone or Compound-B and analyzed at ten hours for corticosterone and ACTH. […] Similar results were found for ACTH levels (>100 fold) supporting the finding that Compound-B is acting by a different mechanism from dexamethasone.

[4] = Solubility during work-up; format: physicochemical; conditions: 10% acetonitrile/water, acidified with TFA
Method: The reductive aminations were accomplished by similar procedures. The sterol (500 mg for, […] for compounds 7 and 8) was dissolved in 2-propanol (25 mL). Ethylenediamine (1 mL) was added to the flask. The 3-oxo sterol and ethylenediamine were allowed to stir at room temperature for approximately four hours. Sodium cyanoborohydride (250 mg for compound 6 and 100 mg for compounds 7 and 8) was dissolved in 2-propanol (2 mL) and acetic acid (1 mL). The sodium cyanoborohydride solution was added to the reaction flask after evolution of gas had almost ceased (approximately five minutes). In all cases the reaction was complete before the first TLC was taken (less than five minutes). The work-up was the same for all analogues, solution was made basic (pH 10–11) by the addition of carbonate buffer. The aqueous layer was repeatedly extracted with chloroform. The chloroform was removed in vacuo and the crude 3-aminosteroid was dissolved in 10% acetonitrile/water, acidified with TFA. The solubility of compound I was very poor. The solutions were passed through a […] Gelman vacu-cap filter. The 3-aminosteroid isomers were separated by reverse phase chromatography on C18 (Dynamax, 300, 8 μM, 21.6 mm ID, 25 cm/L) using a gradient of acetonitrile in water with 0.1% TFA throughout. […]

[5] = system: total serum IgG1, IgG2a and IgE; assay: Serum Ig ELISA in sensitized DBA2J mice; format: in vivo, mouse
Method: Samples were centrifuged to separate cells and serum was collected and used to measure total IgG1, IgG2a and IgE levels. Samples not measured immediately were frozen at −20° C.
Serum Igs were measured using an ELISA antibody-sandwich assay. Microtiter plates were coated, 50 μl per well, with rat anti-murine IgG1, IgG2a or IgE antibody (Southern Biotechnology and PharMingen) at a concentration of 2.5 μg/ml in coating buffer of sodium carbonate-sodium bicarbonate with sodium azide. Plates were covered with plastic wrap and incubated at 4° C. for sixteen hours. The plates were washed three times with a wash buffer of 0.05% Tween-20 in phosphate-buffered saline, incubating for five minutes for each wash. Blocking of nonspecific binding sites was accomplished by adding 200 μl per well 5% bovine serum albumin in phosphate-buffered saline, covering with plastic wrap and incubating for two hours at 37° C. After washing three times with wash buffer, duplicate 50 μll test samples were added to the wells. Test samples were assayed after being diluted 1:10, 1:50 and 1:100 with 5% bovine serum albumin in wash buffer. In addition to the test samples, a set of Ig standards (PharMingen) at various liner concentrations in 5% bovine serum albumin in wash buffer, were assayed to generate a standard curve. A blank of no sample or standard was used to zero the plate reader (background). After adding samples and standards, the plate was covered with plastic wrap and incubated for two hours at room temperature. After washing three times with wash buffer, 50 μl of secondary antibody rat anti-murine IgG1, IgG2a or IgE-horseradish peroxidase conjugate was added at a concentration of 250 ng/ml in 5% bovine serum albumin in wash buffer. […] After five to ten minutes the reaction was stopped with 50 μl of 12.5% sulfuric acid and absorbance was measured at 490 nm on a Dynatech® MR5000 plate reader. A standard curve was constructed from the standards with antigen concentration on the x axis (log scale) and absorbance on the y axis (linear scale). […]

[6] = system: mice sensitized to antigen; assay: Airway hyperresponsiveness in mice sensitized to Aspergillus fumigatus antigen (APTI); format: in vivo, mouse
Method: as §2, §3, §4

eosinophils = assay: Bronchoalveolar lavage cellular analysis (eosinophilia) in sensitized mice; format: in vivo, mouse; conditions: FIG. 16
Excerpt: as §3, with “plateau. […]” for “plateau.”

[7] = 28 day tolerance study in Sprague-Dawley rats (weight, spleen); format: in vivo, rat; conditions: drug administered for 28 days
[8] = FIG. 11 and FIG. 12, mitogen-stimulated lymphocytes, read-out: IC50 for suppression of lymphocyte aggregation and proliferation
[9] = DBA2J mice sensitized to antigen, FIG. 15

SMILES: COC(=O)CC[C@@H](C)C1CCC2C3C(CC[C@@]21C)[C@@]1(C)CC[C@H](NCCN)C[C@H]1C[C@H]3O (stereo partly shown) [Compound-B]
IC50 [1, 8]: 2.5 µg/mL (≈ 5.57 µM)
effective dose compared with Compound-D (D2 naive mice): effective at a lower dose than Compound-D
suppression of bronchial hyperresponsiveness (D2 naive mice; ip): effective in suppressing bronchial hyperresponsiveness
minimal effective concentration [2]: 10 µg/mL
expression of IL-9 in mitogen-stimulated lymphocytes (IL-9): block the expression of IL-9
effect on plasma corticosterone [3]: no significant effect

SMILES: C[C@@H](CNC(=O)N1CCCC1)C1CCC2C3CC[C@@H]4C[C@@H](NCCN)CC[C@]4(C)C3CC[C@@]21C (stereo partly shown) [Compound-I]
IC50 ([1]; tritiated thymidine incorporation, read-out: PBMC Proliferation ASSAY IC50): 0.23 µg/mL (≈ 0.487 µM)
solubility [4]: very poor

SMILES: COC(=O)CC[C@@H](C)C1CCC2C3C[C@@H](O)[C@H]4C[C@@H](NCCN)CC[C@]4(C)C3CC[C@@]21C (stereo partly shown) [Compound-A]
serum IgG2a (TH1 associated immunoglobulin) [5]: not
total serum IgG1 ([5]; FIG. 17): suppressed
total serum IgE ([5]; FIG. 18): suppressed
block of airway hyperresponsiveness ([6]; BALBc mice, 2.5 mg/kg administered twice per week, FIG. 19): able to block airway hyperresponsiveness
block of airway hyperresponsiveness [6, 9]: able to block airway hyperresponsiveness
efficacy compared with dexamethasone [6, 9]: more efficacious than the commonly used corticosteroid, dexamethasone
IC50 [1, 8]: 0.5 µg/mL (≈ 1.11 µM)
eosinophilia (eosinophils in bronchoalveolar lavage) (eosinophils): eosinophils were the particular cell type affected
minimal effective concentration [2]: 1 µg/mL
expression of IL-9 in mitogen-stimulated lymphocytes (IL-9): block the expression of IL-9

suppression of ACTH levels [3]: > 100 fold
suppression of absolute levels of plasma corticosterone [3]: > 450 fold
SMILES: C[C@@H]1C[C@H]2[C@@H]3CCC4=CC(=O)C=C[C@]4(C)[C@@]3(F)[C@@H](O)C[C@]2(C)[C@@]1(O)C(=O)CO [dexamethasone]
body weight [7]: weight loss
spleen (splenic atrophy) ([7]; FIG. 21): splenic atrophy
